{
  "source": "patent US12186365B2",
  "about": "“Composition for regulating cell division comprising FCHO1 modulator, and method for regulating cell division using same” (SEOUL NATIONAL UNIVERSITY R&DB FOUNDATION, priority 2015, dated 2025)",
  "key": {"cells [1]": {"test_system": "cells", "experiment": "Real-time cell growth measurement using Xcelligence", "format": "cell-based", "details": "peptides treated in 10 μM, FIG. 30", "protocol": "Cell viability was measured using Xcelligence for in real time observation, and the peptides were treated in 10 μM. […] The results are illustrated in FIG. 30."}, "FCHo1 cleavage": {"test_system": "FCHo1 cleavage", "experiment": "Immunoblot of FCHo1 cleavage in A549 cell extract with or without MG132", "format": "cell-based, human", "details": "1 μM MG132, 16 hours, A549 cells", "protocol": "The cells were dissolved in IP dissolution buffer for 30 min at 4° C. After centrifugation at 17,000×g for 30 minutes, the concentration of the protein was measured, and the same amount of lysate was used for immunoprecipitation. The immunoprecipitation was carried out overnight at 4° C. using anti-FLAG M^2 affinity gel (Sigma-Aldrich). The precipitate was washed three times with washing solution, and the precipitated proteins were separated using SDS-PAGE. Western blotting was carried out using anti-rabbit antibodies conjugated with specific antibodies and secondary anti-mouse IgG Veriblot or horseradish peroxidase. The results were visualized using a chemiluminescence detector (Atto Ez-Capture MG).\nTo test the potential involvement of specific proteases to cleave FCHo1, the cells were treated with 1 μM MG132, a protease inhibitor for 16 hours. Immunoblotting of the A549 cell extract was performed in the presence or absence of the MG132 protease inhibitor, and the results are illustrated in FIG. 5."}, "cells [2]": {"test_system": "cells", "experiment": "Intracellular uptake of biotin-conjugated peptides (streptavidin-488, CLSM)", "format": "cell-based", "details": "biotin-conjugated peptide, no carrier or CPP, FIG. 29", "protocol": "Biotin-conjugated peptides were treated to cells and fixed on the cells, followed by reaction with streptavidin-488 fluorescent dye, followed by observation with CLSM. The results are illustrated in FIG. 29."}, "Akt1": {"target": "T1, Akt1 (Homo sapiens, UniProt P31749)", "T1 construct": "After treating with the cell lysates; endogenous in cells", "experiment": "In vitro binding of biotin-conjugated FCHo1-derived peptides to Akt1 (streptavidin plate, cell lysates, Akt1 antibody)", "details": "biotin-conjugated peptide on streptavidin plate, FIG. 28", "source_text": "To confirm the binding affinity between Akt1 and Akt1 motif-containing FCHo1 amino acid sequence-derived peptides, biotin was conjugated to peptides to complete the synthetization. The peptides were reacted and attached to on the streptavidin-attached plate. After treating with the cell lysates, the binding affinity of the peptide and Akt1 was confirmed by the Akt1 antibody. The experiment process and its result of confirming in vitro binding affinity of Akt1 according to respective peptides derived from FCHo1 binding sites are illustrated in FIG. 28."}, "[3]": {"test_system": "lung cancer model mouse (K-ras)", "experiment": "Anticancer effect of aerosol-delivered lentiviral FCHo1 vectors in lung cancer model mouse", "format": "in vivo", "details": "K-ras female mice, lentiviral vector inhaled 8 times for 4 weeks, H&E slides, 5 mice per group", "protocol": "Lentiviral vectors were prepared for the full-length, mutation type and deletion type of FCHo1 and transferred to lung cancer model mouse in a non-invasive aerosol method. Then their anticancer effects were confirmed. Example 8 confirmed that the sites involved in FCHo1 cleavage in human cells were FCHo1^S570A and FCHo1^del563-564. Therefore, corresponding positions were confirmed in mouse FCHo1. It was confirmed that S570A corresponded to S554A and del563-564 corresponded to del544-545. […] Then, the anticancer effects thereof were compared. The results are illustrated in FIG. 25.\n(§1) H&E slides were prepared to confirm whether adenoma and hyperplasia were reduced. The shFCHo1 was used for FCHo1 cleavage inhibition. The sequence thereof is represented in SEQ ID NOs: 1 to 4 based on FIG. 26. […] Therefore, this was used to perform this experiment."}, "mouse FCHo1": {"test_system": "mouse FCHo1", "experiment": "FCHo1 inhibitory effect of shRNA sequences acting on mouse FCHo1", "details": "among four shRNA sequences, SEQ ID NOs: 1 to 4", "protocol": "as §1"}, "A549 cells": {"test_system": "A549 cells", "experiment": "Midbody formation in A549 cells expressing FCHo1 constructs (CLSM, MKLP1 staining)", "format": "cell-based, human", "details": "A549 cells in mitosis, compared with wild-type FCHo1", "protocol": "A549 cells were placed in 8-well chamber cover glasses or high-precision cover glasses and were fixed with 3% paraformaldehyde for 10 minutes at room temperature, permeabilized with 0.5% TRITON® X-100 (Sigma-Aldrich) for 5 min, blocked for 30 minutes. Then, the cells were incubated with primary or secondary antibodies in blocking solution (PBS with 0.1% saponin and 3% BSA). Alexa Fluor 647 conjugated anti-rabbit secondary antibody and an oxygen scavenging system (0.5 mg/ml glucose oxidase, 40 μg/ml catalase, 10% glucose, pH 7.4) were used for stochastic optical reconstruction microscopy (dSTORM) imaging. Before imaging, 30 mM mercaptoethylamine ([…]; Sigma) was added to obtain a final thiol concentration of 10-200 mM. All dSTORM and SIM images were obtained from Carl Zeiss ELYRA PS.1 (super-resolution microscopy), and all CLSM images were obtained from the Carl Zeiss LSM710 (confocal laser scanning microscope). […]\nIn the analysis using the synchronization method, the cells were stained with MKLP1 antibody for the central spindle or midbody type analyses. The rates of cells in anaphase (central spindle) and telophase (midbody) were quantified via CLSM images: FCHo1 siRNA (n=318), wt FCHo1 (n=702), FCHo1 Δ563-564 (n=756) and FCHo1 Δ531-589 (n=1952). […]"}},
  "note": "Marks after values point to notes of the source that are not given here. Ends that are not written are not given here. Peptide text beside a SMILES is read from it. * marks the point of attachment. Cbz = O=C(OCc1ccccc1)*",
  "data": [
    {"molecule": "560-567: peptide derived from the FCHo1 amino acid sequence, residues 560-567 (PPRRLRSR; UniProt O14526 560-567, looked up, fragment)", "values": [
      {"measurement": "inhibitory effect on cell growth", "setting": "cells [1]", "value": "inhibitory effects on the cell growth"}
    ]},
    {"molecule": "CC(C)C[C@@H](C=O)NC(=O)[C@H](CC(C)C)NC(=O)[C@H](CC(C)C)NC(=O)OCc1ccccc1", "note": "[MG132] (Cbz-Leu-Leu-Leu-aldehyde)", "values": [
      {"measurement": "cleaved FCHo1 protein (immunoblot)", "setting": "FCHo1 cleavage", "value": "completely disappeared"}
    ]},
    {"molecule": "PPRRLRSRKVSC [560-571, PPRRLRSRKVSC]", "values": [
      {"measurement": "absorption into a cell", "setting": "cells [2]", "value": "increase in absorption into a cell in a concentration-dependent manner"}
    ]},
    {"molecule": "RRLRSRKVSC (FCHo1 fragment) [562-571]", "values": [
      {"measurement": "inhibitory effect on cell growth", "setting": "cells [1]", "value": "inhibitory effects on the cell growth"},
      {"measurement": "Akt1 binding affinity", "setting": "Akt1", "value": "significantly increased"}
    ]},
    {"molecule": "shFCHo1: shRNA acting on mouse FCHo1, SEQ ID NO: 2 (GAGAGAACACCAGCCAGAAUCUCUUCUGGCUGGUGUUCUCUC; hairpin, further chemistry not given here)", "values": [
      {"measurement": "No. of Adenocarcinoma", "setting": "[3]", "value": "0.20 ± 0.45"},
      {"measurement": "No. of Adenoma", "setting": "[3]", "value": "0.60 ± 0.55"},
      {"measurement": "No. of hyperplasia foci", "setting": "[3]", "value": "0.60 ± 0.55**^,#"},
      {"measurement": "FCHo1 inhibitory effect", "setting": "mouse FCHo1", "value": "most significant FCHo1 inhibitory effect"}
    ]},
    {"molecule": "Δ563-564: human FCHo1 with 563-564aa deleted (MMP-9 cleavage site), expressed in A549 cells (protein, Fcho1 delta563-564, human FCHo1 with 563-564aa deleted (MMP-9 cleavage site), expressed in A549 cells) MSYFGEHFWGEKNHGFEVLYHSVKQGPISTKELADFIRERATIEETYSKAMAKLSKLASNGTPMGTFAPLWEVFRVSSDKLALCHLELTRKLQDLIKDVLRYGEEQLKTHKKCKEEVVSTLDAVQVLSGVSQLLPKSRENYLNRCMDQERLRRESTSQKEMDKAETKTKKAAESLRRSVEKYNSARADFEQKMLDSALRFQAMEETHLRHMKALLGSYAHSVEDTHVQIGQVHEEFKQNIENVSVEMLLRKFAESKGTGREKPGPLDFEAYSAAALQEAMKRLRGAKAFRLPGLSRREREPEPPAAVDFLEPDSGTCPEVDEEGFTVRPDVTQNSTAEPSRFSSSDSDFDDEEPRKFYVHIKPAPARAPACSPEAAAAQLRATAGSLILPPGPGGTMKRHSSRDAAGKPQRPRSAPRTSSCAERLQSEEQVSKNLFGPPLESAFDHEDFTGSSSLGFTSSPSPFSSSSPENVEDSGLDSPSHAAPGPSPDSWVPRPGTPQSPPSCRAPPPEARGIRAPPLPDSPQPLASSPGPWGLEALAGGDLMPAPADPTAREGLAAPPRRSRKVSCPLTRSNGDLSRSLSPSPLGSSAASTALERPSFLSQTGHGVSRGPSPVVLGSQDALPIATAFTEYVHAYFRGHSPSCLARVTGELTMTFPAGIVRVFSGTPPPPVLSFRLVHTTAIEHFQPNADLLFSDPSQSDPETKDFWLNMAALTEALQRQAEQNPTASYYNVVLLRYQFSRPGPQSVPLQLSAHWQCGATLTQVSVEYGYRPGATAVPTPLTNVQILLPVGEPVTNVRLQPAATWNLEEKRLTWRLPDVSEAGGSGRLSASWEPLSGPSTPSPVAAQFTSEGTTLSGVDLELVGSGYRMSLVKRRFATGMYLVSC", "values": [
      {"measurement": "midbody formation", "setting": "A549 cells", "value": "inhibited the midbody formation"}
    ]}
  ]
}
